The source of these data is ChEMBL document CHEMBL4732141, “Imidazopyridine-Based 5-HT Receptor Neutral Antagonists: Impact of N-Benzyl and N-Phenylsulfonyl Fragments on Different Receptor Conformational States” (J Med Chem, 2021).

The nature of data set [1]: Stability in pH 1 buffer assessed as compound decomposition after 1 hr. Type of data set: physicochemical. The following applies: pH 1, 1 h.
Data set [2] is described as follows: Stability in deuterated dimethyl sulfoxide. Type of data set: physicochemical.
The nature of data set [3]: Stability in pH 1 buffer assessed as compound decomposition after 24 hrs. The following applies: pH 1, 24 h. Type of data set: physicochemical.
For data set [4], the target named is histamine H1 receptor (HRH1) (Homo sapiens, UniProt P35367). As to the kind of experiment: Inhibition of human HRH1 at 1 uM relative to control.
Another data set concerns the target hERG (KCNH2) (Homo sapiens, UniProt Q12809). As to the kind of experiment: Inhibition of human ERG at 1 uM relative to control.
The target in data set [5] is 5-hydroxytryptamine receptor 2A (Homo sapiens, UniProt P28223). As to the kind of experiment: Displacement of […] from human 5HT2A expressed in HEK293 cell membranes incubated for 1 hr by micro-beta plate reader based analysis. Also on record: species or system Cell membrane.
The target of data set [6] is T1, 5-hydroxytryptamine receptor 1A (Homo sapiens, UniProt P08908).
T1 sequence (P08908 whole entry): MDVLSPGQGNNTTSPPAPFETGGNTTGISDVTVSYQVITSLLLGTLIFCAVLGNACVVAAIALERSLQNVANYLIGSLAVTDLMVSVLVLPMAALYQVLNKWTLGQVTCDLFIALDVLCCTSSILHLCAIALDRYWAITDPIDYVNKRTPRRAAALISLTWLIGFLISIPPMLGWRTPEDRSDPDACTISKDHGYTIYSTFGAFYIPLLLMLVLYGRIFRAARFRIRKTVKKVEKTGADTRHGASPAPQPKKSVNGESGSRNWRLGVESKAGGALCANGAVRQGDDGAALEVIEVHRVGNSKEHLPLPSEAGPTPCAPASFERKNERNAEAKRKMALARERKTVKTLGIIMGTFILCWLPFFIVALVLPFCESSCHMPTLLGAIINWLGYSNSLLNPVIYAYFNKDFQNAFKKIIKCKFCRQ
As to the kind of experiment: Antagonist activity at human 5HT1A expressed in HEK293 cells assessed as reduction in forskolin-induced stimulation of cAMP production incubated for 30 mins by LANCE ultra cAMP detection assay. Type of data set: cell-based. The following applies: hek293, 0.5 h. A general note: Changes in cAMP serve as a functional read-out for many G protein-coupled receptors.

The target in data set [7] is T2, muscarinic acetylcholine receptor M1 (Homo sapiens, UniProt P11229).
T2 sequence (P11229 whole entry): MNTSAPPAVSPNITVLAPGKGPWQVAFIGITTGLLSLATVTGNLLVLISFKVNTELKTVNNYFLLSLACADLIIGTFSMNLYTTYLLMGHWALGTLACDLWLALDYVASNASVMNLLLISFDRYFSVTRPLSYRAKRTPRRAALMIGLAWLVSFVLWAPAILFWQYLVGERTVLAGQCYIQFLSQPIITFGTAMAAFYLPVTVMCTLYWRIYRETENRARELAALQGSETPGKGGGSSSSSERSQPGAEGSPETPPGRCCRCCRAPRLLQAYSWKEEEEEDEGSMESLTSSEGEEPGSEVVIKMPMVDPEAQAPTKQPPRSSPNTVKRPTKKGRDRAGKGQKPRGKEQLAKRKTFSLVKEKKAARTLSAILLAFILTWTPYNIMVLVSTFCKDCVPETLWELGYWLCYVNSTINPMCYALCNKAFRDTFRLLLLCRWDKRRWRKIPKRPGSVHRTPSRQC
As to the kind of experiment: Inhibition of human muscarinic receptor 1 at 1 uM relative to control.

In data set [8] the target is T1, 5-hydroxytryptamine receptor 1A. As to the kind of experiment: Agonist activity at human 5HT1A expressed in HEK293 cells assessed as stimulation of cAMP production incubated for 30 mins by LANCE ultra cAMP detection assay. Type of data set: cell-based.
Data set [9] shares this target. As to the kind of experiment: Displacement of […] from human 5HT1A expressed in HEK293 cell membranes incubated for 1 hr by micro-beta plate reader based analysis. Also on record: species or system Cell membrane.
The target of data set [10] is T3, alpha-1A adrenergic receptor (Homo sapiens, UniProt P35348).
T3 sequence (P35348 whole entry): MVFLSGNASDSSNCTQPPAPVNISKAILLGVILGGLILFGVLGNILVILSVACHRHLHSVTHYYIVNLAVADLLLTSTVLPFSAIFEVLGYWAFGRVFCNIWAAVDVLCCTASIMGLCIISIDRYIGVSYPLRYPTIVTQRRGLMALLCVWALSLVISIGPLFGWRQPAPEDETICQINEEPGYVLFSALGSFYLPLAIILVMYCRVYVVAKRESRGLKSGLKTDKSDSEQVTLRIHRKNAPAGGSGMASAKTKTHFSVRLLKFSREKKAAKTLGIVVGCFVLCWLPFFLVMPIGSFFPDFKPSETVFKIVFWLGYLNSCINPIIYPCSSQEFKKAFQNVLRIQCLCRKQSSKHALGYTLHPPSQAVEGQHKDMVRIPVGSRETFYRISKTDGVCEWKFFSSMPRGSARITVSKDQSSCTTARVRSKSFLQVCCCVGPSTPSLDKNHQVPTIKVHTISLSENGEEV
As to the kind of experiment: Inhibition of human alpha1A adrenergic receptor at 1 uM relative to control.

Data set [11] deals with beta-1 adrenergic receptor (Homo sapiens, UniProt P08588). As to the kind of experiment: Inhibition of human beta1 adrenergic receptor at 1 uM relative to control.
Data set [12] addresses 5-hydroxytryptamine receptor 6 (Homo sapiens, UniProt P50406). As to the kind of experiment: Binding affinity to 5HT6R (unknown origin).
Data set [13] is described as follows: Effect on neurite growth in […] NG108-15 cells expressing GFP-tagged 5-HT6 receptor assessed as neurite length at 1 uM incubated for 24 hrs by epifluorescence microscopy (reference value: 37.20 +/- 1.53 micrometer). Type of data set: functional.
A short description of data set [14]: Toxicity in mouse C8-D1A astrocytes assessed as reduction in cell viability at […] by MTT assay. Type of data set: cell-based. The note with it: astrocyte, dose 0.25 µM.
Data set [15] can be described thus: Toxicity in mouse C8-D1A astrocytes assessed as reduction in cell viability by MTT assay. Type of data set: cell-based, Astrocyte. (In general: Tetrazolium dyes change colour on reduction, which living cells bring about.)
The nature of data set [16]: Neurotoxicity in human SH-SY5Y cells assessed as reduction in cell viability incubated for 24 hrs by MTT assay. Type of data set: toxicity, cell-based.
The test system of data set [17] is Astrocyte. As to the kind of experiment: Glio-protective activity in mouse C8-D1A astrocytes assessed as reduction in DOX-induced toxicity at […] pre-incubated for 5 hrs before doxorubicin addition and measured after 3 hrs by LDH release assay. Type of data set: functional, cell-based. The note with it: dose 0.25 µM.
Data set [18] has as its system Astrocyte. As to the kind of experiment: Glio-protective activity in mouse C8-D1A astrocytes assessed as reduction in DOX-induced toxicity at […] pre-incubated for 5 hrs before doxorubicin addition and measured after 3 hrs by MTT assay. Type of data set: functional, cell-based. The following applies: dose 0.25 µM, time 8.0 hrs.
For data set [19], the system named is Astrocyte. As to the kind of experiment: Glio-protective activity in mouse C8-D1A astrocytes assessed as reduction in 6-OHDA-induced toxicity at […] pre-incubated for 12 hrs before doxorubicin addition and measured after 24 hrs by LDH assay. Type of data set: functional, cell-based. The following applies: dose 0.25 µM, time 36.0 hrs.
Data set [20] has as its system Astrocyte. As to the kind of experiment: Glio-protective activity in mouse C8-D1A astrocytes assessed as reduction in 6-OHDA-induced toxicity at […] pre-incubated for 12 hrs before doxorubicin addition and measured after 24 hrs by MTT assay. Type of data set: functional, cell-based. The following applies: dose 0.25 µM, time 36.0 hrs.

Activity calls are given as the source filed them. The rule behind the calls is not given here.

Sequence of 5-hydroxytryptamine receptor 2A (P28223 whole entry): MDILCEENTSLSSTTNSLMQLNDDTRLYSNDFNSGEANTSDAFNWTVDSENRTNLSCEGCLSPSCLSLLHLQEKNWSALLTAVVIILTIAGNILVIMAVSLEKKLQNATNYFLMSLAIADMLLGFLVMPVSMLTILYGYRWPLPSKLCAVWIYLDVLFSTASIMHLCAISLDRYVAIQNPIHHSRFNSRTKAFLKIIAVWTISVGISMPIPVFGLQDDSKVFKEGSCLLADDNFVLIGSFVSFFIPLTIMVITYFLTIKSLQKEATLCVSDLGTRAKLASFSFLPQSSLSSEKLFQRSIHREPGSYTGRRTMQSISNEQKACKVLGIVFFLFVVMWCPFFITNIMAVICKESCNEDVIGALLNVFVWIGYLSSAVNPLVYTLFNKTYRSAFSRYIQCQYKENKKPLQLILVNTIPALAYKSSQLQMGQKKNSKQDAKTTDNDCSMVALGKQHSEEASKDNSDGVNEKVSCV
Sequence of histamine H1 receptor (HRH1) (P35367 whole entry): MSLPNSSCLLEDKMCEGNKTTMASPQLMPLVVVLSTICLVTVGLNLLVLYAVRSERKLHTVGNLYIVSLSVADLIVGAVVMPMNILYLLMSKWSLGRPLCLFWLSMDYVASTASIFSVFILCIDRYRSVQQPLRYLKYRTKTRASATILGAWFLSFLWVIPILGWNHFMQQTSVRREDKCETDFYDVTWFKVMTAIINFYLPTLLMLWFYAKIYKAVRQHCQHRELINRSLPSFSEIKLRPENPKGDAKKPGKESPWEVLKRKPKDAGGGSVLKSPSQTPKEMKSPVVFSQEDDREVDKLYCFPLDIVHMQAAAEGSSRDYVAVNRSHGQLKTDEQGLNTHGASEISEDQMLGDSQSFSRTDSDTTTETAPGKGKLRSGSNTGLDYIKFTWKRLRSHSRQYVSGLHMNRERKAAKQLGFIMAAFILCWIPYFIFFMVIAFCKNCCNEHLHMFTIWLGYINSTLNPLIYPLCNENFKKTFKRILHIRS
Sequence of beta-1 adrenergic receptor (P08588 whole entry): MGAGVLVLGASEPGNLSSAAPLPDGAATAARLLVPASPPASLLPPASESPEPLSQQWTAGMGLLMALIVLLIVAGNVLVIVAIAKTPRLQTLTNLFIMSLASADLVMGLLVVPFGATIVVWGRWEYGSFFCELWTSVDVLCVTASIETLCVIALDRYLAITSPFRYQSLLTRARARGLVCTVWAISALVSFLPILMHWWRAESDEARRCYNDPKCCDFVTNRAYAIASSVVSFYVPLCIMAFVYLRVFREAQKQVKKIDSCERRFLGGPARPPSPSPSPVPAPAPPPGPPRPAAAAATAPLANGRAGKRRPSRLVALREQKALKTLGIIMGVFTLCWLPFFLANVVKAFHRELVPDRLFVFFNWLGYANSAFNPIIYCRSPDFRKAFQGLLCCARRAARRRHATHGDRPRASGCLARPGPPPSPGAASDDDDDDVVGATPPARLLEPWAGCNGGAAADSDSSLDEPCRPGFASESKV
Sequence of hERG (KCNH2) (Q12809 whole entry): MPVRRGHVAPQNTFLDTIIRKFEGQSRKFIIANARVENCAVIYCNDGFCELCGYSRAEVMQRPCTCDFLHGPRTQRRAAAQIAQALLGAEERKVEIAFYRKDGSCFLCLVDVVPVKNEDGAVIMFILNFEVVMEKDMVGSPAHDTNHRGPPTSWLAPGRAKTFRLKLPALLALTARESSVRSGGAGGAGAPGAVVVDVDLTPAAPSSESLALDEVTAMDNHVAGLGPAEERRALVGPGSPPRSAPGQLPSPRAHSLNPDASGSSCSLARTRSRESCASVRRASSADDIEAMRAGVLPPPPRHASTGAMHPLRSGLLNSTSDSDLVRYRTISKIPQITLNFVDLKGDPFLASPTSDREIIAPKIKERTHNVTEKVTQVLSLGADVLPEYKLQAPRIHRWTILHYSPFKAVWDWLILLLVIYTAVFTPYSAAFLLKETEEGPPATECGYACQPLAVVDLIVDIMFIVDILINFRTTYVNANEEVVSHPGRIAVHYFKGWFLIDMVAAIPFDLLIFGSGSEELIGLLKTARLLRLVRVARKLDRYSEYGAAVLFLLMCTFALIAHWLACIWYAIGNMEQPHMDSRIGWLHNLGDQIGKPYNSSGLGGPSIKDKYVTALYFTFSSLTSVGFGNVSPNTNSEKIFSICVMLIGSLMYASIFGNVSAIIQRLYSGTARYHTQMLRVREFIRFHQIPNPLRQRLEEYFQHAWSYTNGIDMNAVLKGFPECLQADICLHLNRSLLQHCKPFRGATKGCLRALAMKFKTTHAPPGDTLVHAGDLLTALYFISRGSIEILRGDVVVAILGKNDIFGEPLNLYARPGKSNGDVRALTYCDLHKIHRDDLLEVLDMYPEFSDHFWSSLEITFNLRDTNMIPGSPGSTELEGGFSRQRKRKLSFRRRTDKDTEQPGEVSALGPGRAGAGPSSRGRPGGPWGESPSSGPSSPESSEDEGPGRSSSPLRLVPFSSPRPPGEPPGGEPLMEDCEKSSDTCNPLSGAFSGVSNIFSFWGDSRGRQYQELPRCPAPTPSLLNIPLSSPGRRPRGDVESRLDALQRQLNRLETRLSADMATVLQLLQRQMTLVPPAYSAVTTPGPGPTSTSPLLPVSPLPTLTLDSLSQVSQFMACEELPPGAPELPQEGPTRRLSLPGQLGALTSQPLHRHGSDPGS
Sequence of 5-hydroxytryptamine receptor 6 (P50406 whole entry): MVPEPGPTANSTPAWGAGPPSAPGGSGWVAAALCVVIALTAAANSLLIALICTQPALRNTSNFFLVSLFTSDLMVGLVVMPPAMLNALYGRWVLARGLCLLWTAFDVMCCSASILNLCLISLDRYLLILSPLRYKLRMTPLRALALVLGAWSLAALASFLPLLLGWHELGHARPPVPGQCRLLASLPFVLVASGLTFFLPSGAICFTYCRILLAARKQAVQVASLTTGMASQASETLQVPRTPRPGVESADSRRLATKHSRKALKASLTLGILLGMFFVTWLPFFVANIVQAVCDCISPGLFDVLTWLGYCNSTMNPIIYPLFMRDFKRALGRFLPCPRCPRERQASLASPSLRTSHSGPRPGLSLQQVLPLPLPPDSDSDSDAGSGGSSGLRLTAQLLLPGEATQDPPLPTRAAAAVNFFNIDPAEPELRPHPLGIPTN

`O=S(=O)(c1cccc(F)c1)n1cnc2c(N3CCNCC3)nccc21`: the values for the Stabilty entry in [1] and in [2] were “Stable” and “Unstable”, respectively.

Take `COc1cccc(S(=O)(=O)n2c(C(C)C)nc3c(N4CCNCC4)nccc32)c1`: the Stabilty entry was “Stable” in data set [1], “Stable” in data set [3] and “Unstable” in data set [2].

Consider `COc1cccc(S(=O)(=O)n2cnc3c(N4CCNCC4)nccc32)c1`, for which the figures for the Stabilty entry in data set [1] and in data set [2] were “Stable” and “Unstable”, respectively.

For the compound `O=S(=O)(c1cccc(F)c1)n1c(-c2ccccc2)nc2c(N3CCNCC3)nccc21`, the Stabilty result in data set [1] is “Stable”; in data set [2], “Unstable”.

For the compound `CCc1nc2c(N3CCNCC3)nccc2n1S(=O)(=O)c1cccc(Cl)c1`, the inhibition – broadly, the change of the read-out against control, counted positive when it falls – at 1 µM in [4] was 6%; against hERG (KCNH2), 12%; in data set [7] it was 4%; in data set [10], 22%; in data set [11], 10%. The inhibition constant Ki (commonly the dissociation constant of the complex between target and ligand, obtained from inhibition or displacement) was determined as 562 nM in data set [5] and 146 nM in data set [9]. In addition, the Activity entry in data set [6] is given as “Not Active”. Moreover, the Stabilty result is “Stable” in data set [1] and “Unstable” in data set [2]. The EC50 (in general, the concentration giving half of the maximal effect) in [8] is > 20000 nM.

On to `CC(C)c1nc2c(N3CCNCC3)nccc2n1S(=O)(=O)c1ccccc1`, for which the Stabilty result is on record as “Stable” in [1] and “Unstable” in data set [2].

Turning to `CC(C)c1nc2c(N3CCNCC3)nccc2n1S(=O)(=O)c1cccc(Cl)c1`, the Ki worked out at 239 nM in data set [5] and 307 nM in data set [9]. The Stabilty result is given as “Stable” in data set [1] and “Unstable” in [2].

On to `CC(C)c1nc2c(N3CCNCC3)nccc2n1S(=O)(=O)c1cccc(F)c1`, for which the Stabilty entry is “Stable” in data set [1] and “Unstable” in data set [2].

Take `O=S(=O)(c1ccccc1)n1cnc2c(N3CCNCC3)nccc21`: the values for the Stabilty entry in data set [1] and in [2] were “Stable” and “Unstable”, respectively.

Consider `O=S(=O)(c1cccc(Cl)c1)n1cnc2c(N3CCNCC3)nccc21`, for which the Ki in [5] came out at 355 nM; in [9], 285 nM. Moreover, the Stabilty result is “Stable” in [1] and “Unstable” in data set [2].

Consider `O=S(=O)(c1cccc(Cl)c1)n1c(-c2ccccc2)nc2c(N3CCNCC3)nccc21`, for which the Ki was 410 nM in data set [5] and 1090 nM in data set [9]. Besides, the values for the Stabilty result in data set [1] and in data set [2] were “Stable” and “Unstable”, respectively.

`CCc1nc2c(N3CCNCC3)nccc2n1S(=O)(=O)c1cccc(F)c1`: the Ki in data set [5] came to 264 nM; in data set [9], 829 nM. For the same compound, the Stabilty entry in data set [1] was “Stable”; in data set [2], “Unstable”.

`COc1cccc(S(=O)(=O)n2c(-c3ccccc3)nc3c(N4CCNCC4)nccc32)c1`: the Stabilty entry in data set [1] was “Stable”; in [2] it was “Unstable”.

Consider `Cc1nc2c(N3CCNCC3)cccc2n1S(=O)(=O)c1ccccc1` [PF-05212377], for which the Ki in data set [12] is 0.5 nM.

Turning to `O=S(=O)(c1ccccc1)c1cnc2c(N3CCNCC3)cccc2c1` [INTEPIRDINE], the values for the Activity in data set [13] and in [14] were 12.06 um and “Non-Toxic”, respectively. Also, the Stabilty result in [1] is recorded as “Stable”. For the same compound, the CC50 (usually the concentration that lowers cell viability or growth by half) in [15] is > 1000 nM.

In the case of `COc1cccc2c1C(=O)c1c(O)c3c(c(O)c1C2=O)C[C@@](O)(C(=O)CO)C[C@@H]3O[C@H]1C[C@H](N)[C@H](O)[C@H](C)O1` [DOXORUBICIN], in [16], the IC50 (commonly the point on the concentration scale where inhibition reaches its midpoint) at 24 h is 2300 nM.

As for `COc1ccc(NS(=O)(=O)c2ccc(I)cc2)cc1N1CCN(C)CC1`, the outcome with Astrocyte [17], in the data set with Astrocyte [18], with Astrocyte [19] and with Astrocyte [20] was inactive. Moreover, the Activity entry in data set [14] is listed as “Non-Toxic”. For the same compound, the CC50 in data set [15] is > 1000 nM.

With `O=S(=O)(c1ccccc1)n1c(-c2ccccc2)nc2c(N3CCNCC3)nccc21`, the Stabilty entry in data set [1] is on record as “Stable”; in [2] it was “Unstable”.
